Results taken from patent publication US9512105B2, “1-substituted 4-arylpiperazine as kappa opioid receptor antagonists” (RESEARCH TRIANGLE INSTITUTE, priority 2011, dated 2016).
Structures can show the parent of a compound that is named as a salt.

What was measured:
Format in all cases: biochemical
[1] = molecular target: T1, cloned human μ-opioid receptor (Homo sapiens, UniProt P35372); assay: Inhibition of DAMGO-stimulated [35S]GTPγS binding; conditions: antagonism of DAMGO-stimulated [35S]GTPγS binding, cloned human μ receptor
T1 construct: expressed in transfected cells
T1 sequence (P35372 whole entry): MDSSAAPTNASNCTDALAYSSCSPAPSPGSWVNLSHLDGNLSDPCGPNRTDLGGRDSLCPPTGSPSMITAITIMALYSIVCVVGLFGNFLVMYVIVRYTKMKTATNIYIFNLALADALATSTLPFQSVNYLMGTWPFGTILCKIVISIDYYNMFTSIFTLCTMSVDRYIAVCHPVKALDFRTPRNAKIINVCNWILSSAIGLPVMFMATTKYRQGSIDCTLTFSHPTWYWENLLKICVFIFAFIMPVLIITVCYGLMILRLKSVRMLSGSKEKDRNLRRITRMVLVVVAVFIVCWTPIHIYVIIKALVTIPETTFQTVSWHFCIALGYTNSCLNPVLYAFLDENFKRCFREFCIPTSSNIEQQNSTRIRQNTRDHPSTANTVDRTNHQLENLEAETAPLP

[2] = molecular target: T2, cloned human δ-opioid receptor (Homo sapiens, UniProt P41143); assay: Inhibition of DPDPE-stimulated [35S]GTPγS binding; conditions: antagonism of DPDPE-stimulated [35S]GTPγS binding, cloned human δ receptor
T2 construct: expressed in transfected cells
T2 sequence (P41143 whole entry): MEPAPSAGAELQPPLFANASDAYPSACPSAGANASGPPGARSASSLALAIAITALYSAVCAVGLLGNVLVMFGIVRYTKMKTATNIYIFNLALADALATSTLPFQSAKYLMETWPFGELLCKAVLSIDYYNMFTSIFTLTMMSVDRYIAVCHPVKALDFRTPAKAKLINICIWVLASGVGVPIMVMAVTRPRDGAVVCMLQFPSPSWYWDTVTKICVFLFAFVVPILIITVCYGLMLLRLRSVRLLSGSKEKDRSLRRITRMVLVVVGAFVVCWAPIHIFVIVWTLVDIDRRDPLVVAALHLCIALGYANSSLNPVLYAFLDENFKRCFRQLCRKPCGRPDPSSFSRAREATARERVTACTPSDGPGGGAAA

[3] = molecular target: T3, cloned human κ-opioid receptor (Homo sapiens, UniProt P41145); assay: Inhibition of U69,593-stimulated [35S]GTPγS binding; conditions: for efficacy for the κ opioid receptor in words: [35S]GTPγS in vitro functional assay; for δ/κ / μ/κ: ratio of Ke values; for δ/κ: selectivity for κ relative to δ; for μ/κ: selectivity for κ relative to μ
T3 construct: expressed in transfected cells
T3 sequence (P41145 whole entry): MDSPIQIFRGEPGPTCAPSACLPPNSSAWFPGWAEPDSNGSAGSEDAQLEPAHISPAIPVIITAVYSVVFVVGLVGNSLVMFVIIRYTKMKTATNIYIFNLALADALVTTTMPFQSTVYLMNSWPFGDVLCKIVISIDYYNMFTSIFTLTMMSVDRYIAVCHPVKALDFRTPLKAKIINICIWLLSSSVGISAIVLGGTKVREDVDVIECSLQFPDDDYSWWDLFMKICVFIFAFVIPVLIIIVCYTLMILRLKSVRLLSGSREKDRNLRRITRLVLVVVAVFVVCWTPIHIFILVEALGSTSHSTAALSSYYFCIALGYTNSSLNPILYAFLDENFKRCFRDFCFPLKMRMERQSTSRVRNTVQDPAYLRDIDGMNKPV

[4] = antagonism of U69,593-stimulated [35S]GTPγS binding, cloned human κ receptor

SMILES | μ, DAMGO Ke [1] [nM] | δ, DPDPE Ke [2] [nM] | efficacy for the κ opioid receptor in words [3] | κ, U69,593 Ke [3, 4] [nM] | δ/κ [3] | μ/κ [3] | Kb ([1]; read-out: μ, DAMGO Ke) [µM] | Kb ([2]; read-out: δ, DPDPE Ke) [µM] | Kb ([3]; antagonism of U69,593-stimulated [35S]GTPγS binding, cloned human κ receptor, read-out: κ, U69,593 Ke) [µM]
CC(C)[C@@H](CN1CCN(c2cccc(O)c2)[C@@H](C)C1)NC(=O)c1ccc(Oc2ccccc2)cc1.Cl.Cl [Compound 6a, N-(1S)-1-{[(3S)-4-(3-Hydroxyphenyl)-3-methylpiperazin-1-yl]methyl}-2-methylpropyl-4-phenoxybenzamide Dihydrochloride] | 51 ± 14.9 | 570 ± 79 | high efficacy (low Ke values) | 0.85 ± 0.35 | – | – | – | – | –
Cc1ccc(Oc2ccc(C(=O)N[C@H](CN3CCN(c4cccc(O)c4)[C@@H](C)C3)C(C)C)cc2)cc1.Cl.Cl [Compound 6b, N-(1S)-1-{[(3S)-4-(3-Hydroxyphenyl)-3-methylpiperazin-1-yl]methyl}-2-methylpropyl-4-(4-methylphenoxy)benzamide Dihydrochloride] | 20 ± 6 | 188 ± 33 | high efficacy (low Ke values) | 0.69 ± 0.25 | 275 | 29 | – | – | –
CC(C)[C@@H](CN1CCN(c2cccc(O)c2)[C@@H](C)C1)NC(=O)c1ccc(Oc2cccc(F)c2)cc1.Cl.Cl [Compound 6c, N-(1S)-1-{[(3S)-4-(3-Hydroxyphenyl)-3-methylpiperazin-1-yl]methyl}-2-methylpropyl-4-(3-fluorophenoxy)benzamide Dihydrochloride] | 30 ± 9.0 | 174 ± 4.5 | – | 1.48 ± 0.51 | 118 | 16 | – | – | –
Cc1cccc(Oc2ccc(C(=O)N[C@H](CN3CCN(c4cccc(O)c4)[C@@H](C)C3)C(C)C)cc2)c1.Cl.Cl [Compound 6d, N-(1S)-1-{[(3S)-4-(3-Hydroxyphenyl)-3-methylpiperazin-1-yl]methyl}-2-methylpropyl-4-(3-methylphenoxy)benzamide Dihydrochloride] | 18 ± 6 | 62 ± 20 | high efficacy (low Ke values) | 0.18 ± 0.06 | – | – | – | – | –
COc1ccccc1Oc1ccc(C(=O)N[C@H](CN2CCN(c3cccc(O)c3)[C@@H](C)C2)C(C)C)cc1.Cl.Cl [Compound 6e, N-(1S)-1-{[(3S)-4-(3-Hydroxyphenyl)-3-methylpiperazin-1-yl]methyl}-2-methylpropyl-4-(2-methoxyphenoxy)benzamide Dihydrochloride] | 127 ± 78 | 869 ± 205 | – | 5.60 ± 1.41 | 155 | 25 | – | – | –
COc1cccc(Oc2ccc(C(=O)N[C@H](CN3CCN(c4cccc(O)c4)[C@@H](C)C3)C(C)C)cc2)c1.Cl.Cl [Compound 6f, N-(1S)-1-{[(3S)-4-(3-Hydroxyphenyl)-3-methylpiperazin-1-yl]methyl}-2-methylpropyl-4-(3-methoxyphenoxy)benzamide Dihydrochloride] | 33 ± 14 | 1502 ± 412 | high efficacy (low Ke values) | 0.63 ± 0.13 | 2384 | 52 | – | – | –
CC(C)[C@@H](CN1CCN(c2cccc(O)c2)[C@@H](C)C1)NC(=O)c1ccc(Oc2ccc(O)cc2)cc1.Cl.Cl [Compound 6g, N-(1S)-1-{[(3S)-4-(3-Hydroxyphenyl)-3-methylpiperazin-1-yl]methyl}-2-methylpropyl-4-(4-hydroxyphenoxy)benzamide Dihydrochloride] | 71 ± 19 | 1696 ± 377 | – | 8.6 ± 3.7 | 1.97 | 8 | – | – | –
CC(C)[C@@H](CN1CCN(c2cccc(O)c2)[C@@H](C)C1)NC(=O)c1ccc(Oc2ccccc2O)cc1.Cl.Cl [Compound 6h, N-(1S)-1-{[(3S)-4-(3-Hydroxyphenyl)-3-methylpiperazin-1-yl]methyl}-2-methylpropyl-4-(2-hydroxyphenoxy)benzamide Dihydrochloride] | 125 ± 10 | 960 ± 224 | – | 1.06 ± 0.26 | – | – | – | – | –
CC(C)[C@@H](CN1CCN(c2cccc(O)c2)[C@@H](C)C1)NC(=O)c1ccc(Oc2cccc(O)c2)cc1.Cl.Cl [Compound 6i, N-(1S)-1-{[(3S)-4-(3-Hydroxyphenyl)-3-methylpiperazin-1-yl]methyl}-2-methylpropyl-4-(3-hydroxyphenoxy)benzamide Dihydrochloride] | 69 ± 14 | 625 ± 121 | – | 1.85 ± 0.51 | 338 | 37 | – | – | –
COc1ccc(Oc2ccc(C(=O)N[C@H](CN3CCN(c4cccc(O)c4)[C@@H](C)C3)C(C)C)cc2)cc1.Cl.Cl [Compound 6j, N-(1S)-1-{[(3S)-4-(3-Hydroxyphenyl)-3-methylpiperazin-1-yl]methyl}-2-methylpropyl-4-(4-methoxyphenoxy)benzamide Dihydrochloride] | 17 ± 5 | 1383 ± 1049 | high efficacy (low Ke values) | 0.60 ± 0.19 | 2305 | 28 | – | – | –
Cc1cc(C(=O)N[C@H](CN2CCN(c3cccc(O)c3)[C@@H](C)C2)C(C)C)ccc1Oc1ccccc1.Cl.Cl [Compound 6k, N-(1S)-1-{[(3S)-4-(3-Hydroxyphenyl)-3-methylpiperazin-1-yl]methyl}-2-methylpropyl-3-methyl-4-phenoxybenzamide Dihydrochloride] | 15 ± 2 | 435 ± 143 | high efficacy (low Ke values) | 0.63 ± 0.19 | 691 | 24 | – | – | –
CC(C)[C@@H](CN1CCN(c2cccc(O)c2)[C@@H](C)C1)NC(=O)c1ccc(Oc2ccccc2)cn1 [Compound 7a, N-(1S)-1-{[(3S)-4-(3-Hydroxyphenyl)-3-methylpiperazin-1-yl]methyl}-2-methylpropyl]-5-phenoxypyridine-2-carboxamide Trihydrochloride] | – | – | – | – | 723 | 36 | 0.101 ± 0.016 | 2.02 ± 0.678 | 0.0028 ± 0.0012
